Reference: patent US20250120975A1, “INTEGRIN INHIBITORS FOR TREATMENT OF PRIMARY SCLEROSING CHOLANGITIS” (Pliant Therapeutics, Inc., priority 2023, published 2025)
Where two headings read alike, the source gives them in different places.

Tests used:
[1] = biological target: αVβ1 integrin (Homo sapiens, UniProt P05556+P06756); assay: Inhibition of αVβ1 integrin (IC50); format: binding; settings: read-out: 50% inhibitory concentration [IC50] αVβ1
[2] = test system: other integrin receptors; assay: Integrin-ligand binding assays (selectivity); settings: including leukocyte-expressed integrins
[3] = Effect of food on pharmacokinetics of the solution; format: in vivo
[4] = test system: subjects with PSC and suspected liver fibrosis; assay: Phase 2a INTEGRIS-PSC: PRO-C3 (collagen synthesis); format: in vivo, human
From the text: In Parts 1 and 2, plasma, serum, and urine biomarker samples were obtained at predetermined times as indicated in the Schedule of Events (see Table B-4). In Part 3, plasma and serum biomarker samples were obtained at predetermined times as indicated in the Schedule of Events (see Table B-5 and Table B-6). These samples were used to measure specific proteins, nucleotides and/or metabolites that were elevated in subjects with fibrosis, and/or pharmacodynamic markers that could change with inhibition of integrins αVβ6 and αVβ1. The samples were also used to perform exploratory investigations using metabolomic or proteomic methods for use in future studies in subjects with fibrotic diseases.
(§1) Absolute and relative changes from Baseline in liver fibrosis biomarkers (including PRO-C3 and ELF) and in ALP are presented in numerical and graphical forms by treatment and dose utilizing data from the timepoints specified in the Schedule of Events. Changes from Baseline to Week 12(Parts 1 and 2) and Week 24 (Part 3) in magnetic resonance (MR)-based liver imaging are also evaluated, as well as changes in PROs.

[5] = test system: subjects with PSC and suspected liver fibrosis; assay: Phase 2a INTEGRIS-PSC: liver biochemistry (ALP, ALT, AST, bilirubin); format: in vivo, human
Method: Fasting blood and urine specimens for safety laboratory assessments were or will be obtained at the time points specified in the Schedule of Events (see Table B-4, Table B-5, and Table B-6). Specimens are obtained after at least an 8-hour fast. Subjects are in a seated or supine position during blood collection. Creatinine clearance is calculated using the Cockcroft-Gault equation.
as §1

[6] = test system: subjects with PSC and suspected liver fibrosis; assay: Phase 2a INTEGRIS-PSC: gadoxetate contrast MRI of the liver; format: in vivo, human; settings: for MRI relative enhancement (gadoxetate) / time to arrival to the common bile duct (gadoxetate): Example B-5
Method: Imaging of the whole liver was performed by MRI prior to Baseline and at Week 12 (Parts 1 and 2) and will be performed at Baseline, at Week 12, and at Week 24 (Part 3 only), and will be read centrally utilizing dynamic liver imaging in combination with the contrast agent Gadoxetate disodium and a 4-hour fast (no food or drink, except water). Any clinically significant incidental findings are evaluated as potential AEs.
as §1

[7] = test system: subjects with PSC and suspected liver fibrosis
[8] = test system: PCLivS from human liver tissue with biliary fibrosis (PSC, PBC); assay: Fibrotic gene expression (NanoString) in precision cut liver slices; format: cell-based
[9] = all doses, Week 12, MRI sub-study, Example B-4
[10] = 40 mg (n = 24), 12 weeks, Example B-3
[11] = 40 mg once daily, Week 12, n = 24
[12] = 80 mg (n = 20), 12 weeks, Example B-3
[13] = 80 mg once daily, Week 12, n = 20
[14] = 160 mg (n = 20), 12 weeks, Example B-3
[15] = 160 mg once daily, Week 12, n = 20
[16] = 320 mg once daily, Week 12, n = 27
[17] = 320 mg, Example B-5 24-week data (Table D-7), n = 27
[18] = 40, 80, 160, and 320 mg pooled, Week 12, n = 91
[19] = All (n = 64), 12 weeks, Example B-3
[20] = ≥1 μM, PCLivS from 10 livers with biliary fibrosis (6 PSC, 4 PBC), 2 days

Sequence of αVβ1 integrin (P06756 31-1048): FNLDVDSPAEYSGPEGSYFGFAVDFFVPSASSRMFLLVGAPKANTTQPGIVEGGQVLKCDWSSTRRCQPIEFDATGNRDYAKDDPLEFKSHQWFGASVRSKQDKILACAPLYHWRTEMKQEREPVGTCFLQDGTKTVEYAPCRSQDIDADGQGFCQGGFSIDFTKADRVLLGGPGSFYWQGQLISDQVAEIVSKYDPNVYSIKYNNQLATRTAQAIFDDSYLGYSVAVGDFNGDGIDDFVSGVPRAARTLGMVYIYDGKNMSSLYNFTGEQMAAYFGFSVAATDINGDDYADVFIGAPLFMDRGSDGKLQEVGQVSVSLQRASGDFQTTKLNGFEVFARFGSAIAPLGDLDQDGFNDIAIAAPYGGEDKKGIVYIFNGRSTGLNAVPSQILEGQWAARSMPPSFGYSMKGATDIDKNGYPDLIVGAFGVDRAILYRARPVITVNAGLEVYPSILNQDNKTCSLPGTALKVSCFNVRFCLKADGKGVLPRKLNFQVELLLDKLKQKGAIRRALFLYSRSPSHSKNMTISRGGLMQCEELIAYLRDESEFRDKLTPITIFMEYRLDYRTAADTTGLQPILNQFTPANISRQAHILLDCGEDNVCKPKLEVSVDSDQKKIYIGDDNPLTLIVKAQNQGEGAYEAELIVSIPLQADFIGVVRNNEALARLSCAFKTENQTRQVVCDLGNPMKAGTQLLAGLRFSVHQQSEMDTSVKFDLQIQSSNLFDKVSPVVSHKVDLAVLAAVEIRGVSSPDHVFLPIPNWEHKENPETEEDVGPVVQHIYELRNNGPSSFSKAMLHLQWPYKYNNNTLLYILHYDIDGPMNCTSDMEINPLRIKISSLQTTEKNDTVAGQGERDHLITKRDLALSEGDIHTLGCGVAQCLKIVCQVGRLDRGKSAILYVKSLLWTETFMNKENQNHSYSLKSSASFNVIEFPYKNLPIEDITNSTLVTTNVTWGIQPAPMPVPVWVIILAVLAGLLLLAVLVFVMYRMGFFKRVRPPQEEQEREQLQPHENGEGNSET
Sequence of αVβ1 integrin (P05556 21-798): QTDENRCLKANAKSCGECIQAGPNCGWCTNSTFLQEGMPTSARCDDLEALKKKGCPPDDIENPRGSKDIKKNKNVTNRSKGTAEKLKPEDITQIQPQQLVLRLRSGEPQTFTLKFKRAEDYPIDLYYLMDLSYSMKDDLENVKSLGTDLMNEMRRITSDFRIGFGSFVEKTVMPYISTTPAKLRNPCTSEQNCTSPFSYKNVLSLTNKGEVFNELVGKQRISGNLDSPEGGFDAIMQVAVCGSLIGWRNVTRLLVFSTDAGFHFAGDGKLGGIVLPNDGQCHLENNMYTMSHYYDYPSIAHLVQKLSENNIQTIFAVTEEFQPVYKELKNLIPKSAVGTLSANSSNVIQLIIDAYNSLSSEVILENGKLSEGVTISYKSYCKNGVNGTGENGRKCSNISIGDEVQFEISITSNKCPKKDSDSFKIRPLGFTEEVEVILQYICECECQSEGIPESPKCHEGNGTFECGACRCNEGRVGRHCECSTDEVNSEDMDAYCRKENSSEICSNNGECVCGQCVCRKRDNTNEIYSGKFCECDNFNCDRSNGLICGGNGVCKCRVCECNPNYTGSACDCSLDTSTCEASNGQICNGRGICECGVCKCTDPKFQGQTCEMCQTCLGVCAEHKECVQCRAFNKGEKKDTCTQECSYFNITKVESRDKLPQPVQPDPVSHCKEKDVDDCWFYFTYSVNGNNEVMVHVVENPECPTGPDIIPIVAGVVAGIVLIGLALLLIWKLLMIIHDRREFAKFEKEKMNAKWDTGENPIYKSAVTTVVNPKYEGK

## COCCN(CCCCc1ccc2c(n1)NCCC2)CC[C@H](Nc1ncnc2ccccc12)C(=O)O [Bexotegrast, (S)-4-((2-methoxyethyl)(4-(5,6,7,8-tetrahydro-1,8-naphthyridin-2-yl)butyl)amino)-2-(quinazolin-4-ylamino)butanoic acid]
[1]
  IC50: 3.4 nM
[2]
  selectivity for αVβ6 and αVβ1 over other integrin receptors: highly selective
[3]
  decrease of AUCinf in the fed state relative to the fasted state: 37%
  decrease of Cmax in the fed state relative to the fasted state: 52%
[4]; 40 mg (p<0.01) and 160 mg (p<0.05), Week 12, Example B-3
  PRO-C3, difference to placebo: statistically significant differences from placebo
[4]; 320 mg, Week 12, Example B-4
  PRO-C3 levels relative to placebo: reduction
[4]; all doses (40, 80, 160 mg), Week 12, Example B-3
  collagen synthesis (PRO-C3) relative to placebo: reduced
[4]; all doses, statistical significance at Week 12 for 40 mg, 160 mg and pooled groups, Example B-4
  PRO-C3 relative to the placebo: reduced
[5]; 320 mg, over 24 weeks, compared to increased levels on placebo, Example B-5
  ALP, all participants: statistically significant reduction
[5]; 320 mg, over 24 weeks, Example B-5
  ALP, patients with elevated baseline ALP values: greater reductions
[5]; 40, 80, 160 mg, Week 12, Example B-3
  ALP relative to placebo: dose-dependent trend for reduction in ALP
[5]; all doses versus increases in placebo, Week 12, Example B-3
  liver chemistry levels (ALT, AST, total and direct bilirubin): stabilization of liver chemistry levels
[5]; subgroup with elevated ALP (>ULN) at Baseline, Week 12, Example B-4
  ALP relative to the placebo: stabilized
[6]; 320 mg, Week 12, MRI sub-study
  MRI relative enhancement (gadoxetate): increased relative enhancement
  time to arrival to the common bile duct (gadoxetate): decreased time to arrival
[6]; 320 mg, Week 12, Example B-4
  MRI imaging: hepatocyte function and bile flow relative to placebo: evidence of improved hepatocyte function and bile flow
[6]; 320 mg, Week 24, MRI sub-study
  MRI relative enhancement (gadoxetate): further increase in relative enhancement
  time to arrival to the common bile duct (gadoxetate): faster time to arrival
[6]; all doses compared to placebo, Week 12, Example B-3
  change in Gadoxetate time of arrival in bile duct: shorter
[6]; all doses, Baseline to Week 12, compared to a reduction in placebo, Example B-3
  MRI relative enhancement in whole liver (gadoxetate): improvement in relative enhancement
[6]; [9]
  Gadoxetate relative enhancement (RE) compared to the placebo: increase
  Gadoxetate time of arrival to the common bile duct compared to the placebo: reduced
[7]; [10]
  COVID-19 TEAE, % of Participants Reporting: (8.3) %
  COVID-19 TEAE, n of Participants Reporting: 2 n
  TEAE Leading to Death, n of Participants Reporting: 0 n
[7]; [11]
  COVID-19 TEAE, % of Participants Reporting: (8.3) %
  COVID-19 TEAE, n of Participants Reporting: 2
  TEAE Leading to Death, n of Participants Reporting: 0
[7]; 40 mg once daily, Week 12, n = 24, COVID-19/dyspnoea/nasal congestion
  TEAE Leading to Withdrawal of bexotegrast, n of Participants Reporting: 1
[7]; 40 mg treatment group, Example B-3
  TEAE leading to withdrawal: AE Preferred Term: COVID-19/
[7]; [12]
  COVID-19 TEAE, % of Participants Reporting: (5.0) %
  COVID-19 TEAE, n of Participants Reporting: 1 n
  TEAE Leading to Death, n of Participants Reporting: 0 n
[7]; [13]
  COVID-19 TEAE, % of Participants Reporting: (5.0) %
  COVID-19 TEAE, n of Participants Reporting: 1
  TEAE Leading to Death, n of Participants Reporting: 0
[7]; [14]
  COVID-19 TEAE, n of Participants Reporting: 0 n
  TEAE Leading to Death, n of Participants Reporting: 0 n
[7]; [15]
  COVID-19 TEAE, n of Participants Reporting: 0
  TEAE Leading to Death, n of Participants Reporting: 0
[7]; [16]
  COVID-19 TEAE, % of Participants Reporting: (14.8) %
  COVID-19 TEAE, n of Participants Reporting: 4
  TEAE Leading to Death, n of Participants Reporting: 0
[7]; 320 mg, After Week 12 (Table D-4), n = 27
  TEAE Leading to Death, n of Participants Reporting After Week 12: 0
[7]; [17]
  COVID-19 TEAE, % of Participants Reporting: 18.5%
  COVID-19 TEAE, n of Participants Reporting: 5
[7]; 320 mg, after 24 weeks (Table D-3), n = 27
  TEAE Leading to Death, n of Participants Reporting: 0
[7]; [18]
  COVID-19 TEAE, % of Participants Reporting: (7.7) %
  COVID-19 TEAE, n of Participants Reporting: 7
  TEAE Leading to Death, n of Participants Reporting: 0
[7]; [19]
  COVID-19 TEAE, % of Participants Reporting: (4.7) %
  COVID-19 TEAE, n of Participants Reporting: 3 n
  TEAE Leading to Death, n of Participants Reporting: 0 n
[7]; human, in vivo, 12 weeks
  Cholangitis (TEAE), n of Participants Reporting: 2 n
  Fatigue (TEAE), n of Participants Reporting: 9 n
  Frequent bowel movements (TEAE), % of Participants Reporting: (4.7) %
  Frequent bowel movements (TEAE), n of Participants Reporting: 3 n
  Headache (TEAE), n of Participants Reporting: 6 n
  Nausea (TEAE), n of Participants Reporting: 6 n
  Pruritus (TEAE), n of Participants Reporting: 9 n
  Serious TEAE Related to study drug, n of Participants Reporting: 0 n
  Serious TEAE, % of Participants Reporting: (3.1) %
  Serious TEAE, n of Participants Reporting: 2 n
  TEAE Leading to Early Termination from Study, % of Participants Reporting: (1.6)^1%
  TEAE Leading to Early Termination from Study, n of Participants Reporting: 1 n
  TEAE Leading to Interruption of Study Drug, % of Participants Reporting: (1.6)^1%
  TEAE Leading to Interruption of Study Drug, n of Participants Reporting: 1 n
  TEAE Leading to Withdrawal of Study Drug, % of Participants Reporting: (4.7)^2, 3, 4%
  TEAE Leading to Withdrawal of Study Drug, n of Participants Reporting: 3 n
  TEAE Related to study drug, % of Participants Reporting: (17.2) %
  TEAE Related to study drug, n of Participants Reporting: 11 n
  TEAE of CTCAE Grade 3 or Higher Related to study drug, n of Participants Reporting: 0 n
  TEAE of CTCAE Grade 3 or Higher, % of Participants Reporting: (6.3) %
  TEAE of CTCAE Grade 3 or Higher, n of Participants Reporting: 4 n
  TEAE, % of Participants Reporting: (64.1) %
  TEAE, n of Participants Reporting: 41 n
[7]; in vivo
  AEs of pruritus and cholangitis relative to placebo: occurred less frequently
[8]; relative to inhibition with high dose ALK5 inhibitor, PCLivS from 10 livers
  inhibition of the TGF-β-driven COLIA2 expression: ≤ 43%
[8]; [20]
  significant reduction in expression of COLIA2: 19%
  significant reduction in expression of TGF-81: 24%
  trend down in overall expression of COL3A1: 15%
